Test results taken from PubChem BioAssay (NCI).
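Interpolation was linear, between the two tested concentrations surrounding the appropriate level; five concentrations were tested over 48 hours in 96-well plates. GI50: concentration for 50% inhibition of growth. TGI: total growth inhibition.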

What was measured:
Assay in all cases: growth of human tumour cells (NCI), 48 h
RPMI-8226 leukemia = test system: RPMI-8226 leukemia
SNB-19 CNS = test system: SNB-19 CNS
SK-OV-3 ovarian = test system: SK-OV-3 ovarian
UACC-257 melanoma = test system: UACC-257 melanoma
SF-295 CNS = test system: SF-295 CNS
MALME-3M melanoma = test system: MALME-3M melanoma
HCT-116 colon = test system: HCT-116 colon
UACC-62 melanoma = test system: UACC-62 melanoma
LOX IMVI melanoma = test system: LOX IMVI melanoma
NCI-H23 lung = test system: NCI-H23 lung
K-562 leukemia = test system: K-562 leukemia
HL-60(TB) leukemia = test system: HL-60(TB) leukemia

## O=C(O)Cn1cnc2c(=O)[nH]c(Nc3ccccc3)nc21
RPMI-8226 leukemia
  TGI: > 100 µM
SNB-19 CNS
  TGI: > 100 µM
SK-OV-3 ovarian
  TGI: > 100 µM
UACC-257 melanoma
  TGI: > 100 µM
SF-295 CNS
  TGI: > 100 µM
MALME-3M melanoma
  TGI: > 100 µM
HCT-116 colon
  TGI: > 100 µM
UACC-62 melanoma
  TGI: > 100 µM
LOX IMVI melanoma
  TGI: > 100 µM
NCI-H23 lung
  TGI: > 100 µM

## CCOP(=O)(OCC)C(Cc1cn(S(=O)(=O)c2ccc(C)cc2)cn1)C(=O)O (stereo unspecified)
RPMI-8226 leukemia
  TGI: > 100 µM
SNB-19 CNS
  TGI: > 100 µM
SK-OV-3 ovarian
  TGI: > 100 µM
K-562 leukemia
  TGI: > 100 µM
SF-295 CNS
  TGI: > 100 µM
MALME-3M melanoma
  TGI: > 100 µM
HCT-116 colon
  TGI: > 100 µM
UACC-62 melanoma
  TGI: > 100 µM
LOX IMVI melanoma
  TGI: > 100 µM
HL-60(TB) leukemia
  TGI: > 100 µM
NCI-H23 lung
  TGI: > 100 µM

## C#CCn1c(=O)c2cc(OC)c(OC)cc2n(CC#C)c1=O
RPMI-8226 leukemia
  TGI: > 10 µM
SNB-19 CNS
  TGI: > 10 µM
SK-OV-3 ovarian
  TGI: > 10 µM
UACC-257 melanoma
  TGI: > 10 µM
K-562 leukemia
  TGI: > 10 µM
SF-295 CNS
  TGI: > 10 µM
MALME-3M melanoma
  TGI: > 10 µM
HCT-116 colon
  TGI: > 10 µM
LOX IMVI melanoma
  TGI: > 10 µM
NCI-H23 lung
  TGI: > 10 µM

## O=C1C2Cc3ccccc3CN2C(=O)N1CN1CCCCC1 (stereo unspecified)
RPMI-8226 leukemia
  TGI: > 100 µM
SNB-19 CNS
  TGI: > 100 µM
K-562 leukemia
  TGI: > 100 µM
SF-295 CNS
  TGI: > 100 µM
MALME-3M melanoma
  TGI: > 100 µM
UACC-62 melanoma
  TGI: > 100 µM
LOX IMVI melanoma
  TGI: > 100 µM
HL-60(TB) leukemia
  TGI: 88.3 µM
NCI-H23 lung
  TGI: > 100 µM

## Cn1cnc([N+](=O)[O-])c1Sc1nnc(-c2ccc(Cl)cc2)n1C
RPMI-8226 leukemia
  TGI: 71.3 µM
SNB-19 CNS
  TGI: > 100 µM
SK-OV-3 ovarian
  TGI: > 100 µM
UACC-257 melanoma
  TGI: 25.5 µM
K-562 leukemia
  TGI: 34.2 µM
SF-295 CNS
  TGI: > 100 µM
MALME-3M melanoma
  TGI: 23 µM
HCT-116 colon
  TGI: 25.8 µM
UACC-62 melanoma
  TGI: 29 µM
LOX IMVI melanoma
  TGI: 20.6 µM
NCI-H23 lung
  TGI: 32.1 µM

## Cc1ccc2c(=O)cc(-c3ccccc3)[nH]c2n1
RPMI-8226 leukemia
  TGI: > 15.1 µM
SNB-19 CNS
  TGI: > 100 µM
SK-OV-3 ovarian
  TGI: > 21 µM
UACC-257 melanoma
  TGI: > 43.4 µM
K-562 leukemia
  TGI: 6.57 µM
MALME-3M melanoma
  TGI: > 100 µM
HCT-116 colon
  TGI: 59.4 µM
LOX IMVI melanoma
  TGI: > 100 µM
NCI-H23 lung
  TGI: 16.8 µM

## CSCCC(NOC(=O)Cc1ccccc1)P(=O)(O)c1ccccc1 (stereo unspecified)
RPMI-8226 leukemia
  TGI: > 100 µM
SNB-19 CNS
  TGI: > 100 µM
SK-OV-3 ovarian
  TGI: > 100 µM
UACC-257 melanoma
  TGI: > 100 µM
K-562 leukemia
  TGI: > 100 µM
SF-295 CNS
  TGI: > 100 µM
HCT-116 colon
  TGI: > 100 µM
LOX IMVI melanoma
  TGI: > 100 µM
HL-60(TB) leukemia
  TGI: > 100 µM
NCI-H23 lung
  TGI: > 100 µM

## COc1ccccc1-c1nc[nH]c1-c1ccccc1OC
RPMI-8226 leukemia
  TGI: > 100 µM
SNB-19 CNS
  TGI: > 100 µM
SK-OV-3 ovarian
  TGI: > 100 µM
UACC-257 melanoma
  TGI: > 100 µM
K-562 leukemia
  TGI: 65 µM
SF-295 CNS
  TGI: 97.9 µM
MALME-3M melanoma
  TGI: 52.9 µM
HCT-116 colon
  TGI: > 100 µM
LOX IMVI melanoma
  TGI: 41.7 µM
NCI-H23 lung
  TGI: > 100 µM

## COc1ccc(/C=N/NC(=O)NCCNCCO)cc1
RPMI-8226 leukemia
  TGI: > 100 µM
SK-OV-3 ovarian
  TGI: > 100 µM
UACC-257 melanoma
  TGI: > 100 µM
K-562 leukemia
  TGI: > 100 µM
SF-295 CNS
  TGI: > 100 µM
MALME-3M melanoma
  TGI: > 100 µM
HCT-116 colon
  TGI: > 100 µM
UACC-62 melanoma
  TGI: > 100 µM
LOX IMVI melanoma
  TGI: > 100 µM
HL-60(TB) leukemia
  TGI: > 100 µM
NCI-H23 lung
  TGI: > 100 µM

## O=C(O)C(=Cc1ccc(-c2ccc([N+](=O)[O-])cc2)o1)C(=O)O
RPMI-8226 leukemia
  TGI: > 100 µM
SNB-19 CNS
  TGI: > 100 µM
SK-OV-3 ovarian
  TGI: > 100 µM
UACC-257 melanoma
  TGI: > 100 µM
K-562 leukemia
  TGI: > 100 µM
SF-295 CNS
  TGI: > 100 µM
MALME-3M melanoma
  TGI: > 100 µM
HCT-116 colon
  TGI: > 100 µM
UACC-62 melanoma
  TGI: > 100 µM
LOX IMVI melanoma
  TGI: > 100 µM
NCI-H23 lung
  TGI: > 100 µM

## CCCN1CCN(c2ccc3nc(-c4ccc5nc(-c6ccc(OCC)cc6)[nH]c5c4)[nH]c3c2)CC1
RPMI-8226 leukemia
  GI50: 0.382 µM
  TGI: 2.85 µM
SK-OV-3 ovarian
  GI50: 1.33 µM
  TGI: 3.37 µM
K-562 leukemia
  GI50: 0.418 µM
  TGI: 1.82 µM
UACC-62 melanoma
  GI50: 1.07 µM
  TGI: 26.7 µM
HL-60(TB) leukemia
  GI50: 1.08 µM
  TGI: 3.55 µM

## Nc1ccc(Oc2ccc(C34CC5CC(C3)CC(c3ccc(Oc6ccc(N)c(O)c6)cc3)(C5)C4)cc2)cc1O
RPMI-8226 leukemia
  TGI: > 100 µM
SNB-19 CNS
  TGI: 7.5 µM
SK-OV-3 ovarian
  TGI: 8.57 µM
UACC-257 melanoma
  TGI: 4.72 µM
K-562 leukemia
  TGI: > 100 µM
SF-295 CNS
  TGI: 5.1 µM
MALME-3M melanoma
  TGI: 6.24 µM
UACC-62 melanoma
  TGI: 6.59 µM
LOX IMVI melanoma
  TGI: 3.11 µM
NCI-H23 lung
  TGI: 4.1 µM

## O=C(NNC(=O)c1ccccc1O)c1cccs1
RPMI-8226 leukemia
  TGI: > 100 µM
SNB-19 CNS
  TGI: > 100 µM
SK-OV-3 ovarian
  TGI: > 100 µM
UACC-257 melanoma
  TGI: > 100 µM
K-562 leukemia
  TGI: > 100 µM
SF-295 CNS
  TGI: > 100 µM
MALME-3M melanoma
  TGI: > 100 µM
HCT-116 colon
  TGI: > 100 µM
UACC-62 melanoma
  TGI: > 100 µM
LOX IMVI melanoma
  TGI: > 100 µM
HL-60(TB) leukemia
  TGI: > 100 µM

## N#Cc1ccccc1C#C/C=C\C#Cc1ccccn1
SNB-19 CNS
  TGI: 69.3 µM
SK-OV-3 ovarian
  TGI: 76.7 µM
UACC-257 melanoma
  TGI: 28.8 µM
K-562 leukemia
  TGI: > 100 µM
SF-295 CNS
  TGI: 52.7 µM
MALME-3M melanoma
  TGI: 39.6 µM
HCT-116 colon
  TGI: 24.3 µM
UACC-62 melanoma
  TGI: 37 µM
HL-60(TB) leukemia
  TGI: 63.6 µM
NCI-H23 lung
  TGI: 25.5 µM

## C#CCN1C(=O)CN2C(Cl)(Cl)C2(c2ccccc2)c2cc(Cl)ccc21 (stereo unspecified)
RPMI-8226 leukemia
  TGI: > 100 µM
UACC-257 melanoma
  TGI: > 100 µM
K-562 leukemia
  TGI: > 100 µM
SF-295 CNS
  TGI: > 100 µM
MALME-3M melanoma
  TGI: > 100 µM
HCT-116 colon
  TGI: > 100 µM
LOX IMVI melanoma
  TGI: > 100 µM
NCI-H23 lung
  TGI: > 100 µM

## CC(=O)O[C@H]1C(=O)[C@@]2(C)C(C(OC(=O)c3ccccc3)[C@]3(O)CC(OC(=O)C(O)C(NC(=O)c4cccc(Cl)c4)c4ccccc4)C(C)=C1C3(C)C)[C@]1(OC(C)=O)CO[C@@H]1C[C@@H]2O (stereo partly specified)
RPMI-8226 leukemia
  TGI: > 10 µM
SNB-19 CNS
  TGI: > 10 µM
SK-OV-3 ovarian
  TGI: > 10 µM
UACC-257 melanoma
  TGI: > 10 µM
K-562 leukemia
  TGI: > 10 µM
SF-295 CNS
  TGI: > 10 µM
MALME-3M melanoma
  TGI: > 10 µM
HCT-116 colon
  TGI: 5.12 µM
LOX IMVI melanoma
  TGI: > 10 µM
HL-60(TB) leukemia
  TGI: 0.419 µM
NCI-H23 lung
  TGI: > 10 µM

## OC[C@@H](O)[C@H](O)[C@H](O)[C@@H](O)C1SCCCS1
RPMI-8226 leukemia
  TGI: > 100 µM
SNB-19 CNS
  TGI: > 100 µM
SK-OV-3 ovarian
  TGI: > 100 µM
UACC-257 melanoma
  TGI: > 100 µM
SF-295 CNS
  TGI: > 100 µM
HCT-116 colon
  TGI: > 100 µM
UACC-62 melanoma
  TGI: > 100 µM
NCI-H23 lung
  TGI: > 100 µM

## O=C1/C(=C/Cc2ccco2)N=C(c2ccccc2)N1c1nc2ccc(Sc3ccccc3)cc2[nH]1
RPMI-8226 leukemia
  TGI: > 100 µM
SNB-19 CNS
  TGI: 86.7 µM
SK-OV-3 ovarian
  TGI: 84.6 µM
UACC-257 melanoma
  TGI: 57.5 µM
K-562 leukemia
  TGI: > 100 µM
SF-295 CNS
  TGI: > 100 µM
HCT-116 colon
  TGI: 40.7 µM
UACC-62 melanoma
  TGI: 83.1 µM
LOX IMVI melanoma
  TGI: 43.7 µM
HL-60(TB) leukemia
  TGI: 45.4 µM

## CN(CCCNC(=O)c1[nH]nc2c1ccc1ccccc12)CCCNC(=O)c1[nH]nc2c1ccc1ccccc12
SNB-19 CNS
  TGI: 37.6 µM
SK-OV-3 ovarian
  TGI: 34.2 µM
UACC-257 melanoma
  TGI: 16.9 µM
SF-295 CNS
  TGI: 32.5 µM
MALME-3M melanoma
  TGI: 22.4 µM
HCT-116 colon
  TGI: 25.2 µM
UACC-62 melanoma
  TGI: 21.6 µM
LOX IMVI melanoma
  TGI: 25.9 µM
HL-60(TB) leukemia
  TGI: 10.4 µM
NCI-H23 lung
  TGI: 33 µM

## Cc1nc2cc3[nH]c4ccccc4c(=O)c3cc2s1
RPMI-8226 leukemia
  TGI: > 100 µM
SNB-19 CNS
  TGI: > 100 µM
SK-OV-3 ovarian
  TGI: > 100 µM
UACC-257 melanoma
  TGI: > 100 µM
K-562 leukemia
  TGI: > 100 µM
SF-295 CNS
  TGI: > 100 µM
MALME-3M melanoma
  TGI: > 100 µM
HCT-116 colon
  TGI: > 100 µM
UACC-62 melanoma
  TGI: > 100 µM
HL-60(TB) leukemia
  TGI: > 100 µM
NCI-H23 lung
  TGI: > 100 µM
